Reference: patent US6455561B1, “Heterocyclic compounds and their therapeutic use” (Darwin Discovery, Ltd., priority 2000, dated 2002)

Tested on: eosinophilia
Experiment: Guinea pig lung model (inhibition of eosinophilia)
Format: in vivo
Conditions: dosed at 3 mg/kg
Protocol: Activity in a guinea pig lung model is measured using the procedures described by Mauser et al, Am. Rev. Respir. Dis. 148:1623 (1993), and Am. J. Respir. Crit. Care Med. 152:467 (1995).

COCc1cc2c(C(=O)Nc3c(C)noc3C)ccc(OC)c2o1 [Example 10, 7-Methoxy-2-methoxymethylbenzofuran-4-carboxylic Acid (3,5-dimethylisoxazol-4-yl)-amide]
inhibition of eosinophilia: 35%
